Assay results as given in patent publication US5514713A, “Amidinophenol derivatives” (Ono Pharmaceutical Co., Ltd., priority 1993, dated 1996).
Counter-ions that a name gives are not always drawn.

Legend:
trypsin = molecular target: T1, trypsin (Bos taurus, UniProt P00760); test: Inhibitory activity on trypsin; type: biochemical; conditions: trypsin derived from bovine pancreas; BAPNA substrate; pH 8.0; 30° C.; absorbance at 405 nm
T1 construct: from tissue; host or cells: bovine pancreas
T1 sequence (P00760 24-246): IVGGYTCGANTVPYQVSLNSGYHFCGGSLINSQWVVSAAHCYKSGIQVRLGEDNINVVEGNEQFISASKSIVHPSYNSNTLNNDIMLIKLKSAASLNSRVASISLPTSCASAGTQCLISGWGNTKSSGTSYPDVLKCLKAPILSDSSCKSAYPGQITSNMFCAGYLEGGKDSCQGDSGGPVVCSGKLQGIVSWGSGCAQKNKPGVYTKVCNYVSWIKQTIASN
Procedure: (2) Inhibitory activity on trypsin
To a mixture of a 0.2 M HEPES·sodium hydroxide buffer solution (pH 8.0, 100 μl) and distilled water (640 μl), were added solutions of a test compound in respective concentrations or water (10 μl), and a solution of 80 mU/ml trypsin (derived from bovine pancreas) (50 μl) and then the mixture was preincubated for one minute at 30° C. To the solution thus obtained was added 2.5 mM BAPNA (200 μl) and the mixture was incubated at 30° C. The absorbance at 405 nm was measured. Percentage (%) of the absorbance in the presence of a test compound was calculated when the absorbance in the absence thereof was regarded as 100%, and therefrom IC50 value was calculated.
(§1) In the methods hereinbefore described, 10PY-PC represents 3'-palmitoyl-2-(1-opyrenedecanoyl)-L-α-phosphatidylcholine, HEPES represents 4-(2-hydroxyethyl)-1-piperazineethanesulfonic acid, and BAPNA represents α-N-benzoyl-DL-arginine-p-nitroanilide hydrochloride.

PLA2 [1] = molecular target: T2, PLA2 (Sus scrofa, UniProt P00592); test: Inhibitory activity on PLA2; type: biochemical, hog
T2 construct: from tissue; host or cells: hog pancreas
T2 sequence (P00592 23-146): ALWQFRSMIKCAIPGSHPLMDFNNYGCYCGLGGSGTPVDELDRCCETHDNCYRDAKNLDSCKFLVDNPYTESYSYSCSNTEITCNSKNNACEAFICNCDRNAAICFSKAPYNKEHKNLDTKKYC
Procedure: A reaction solution including 50 mM tris-HCl buffer (pH7.5, 874 μl; containing 100 mM sodium chloride, 1 mM EDTA), 1M calcium chloride (6 μl), 1% bovine serum albumin (10 μl) and 2.5 mM 10PY-PC (10 μl), was prepared. To the solution were added solutions of a test compound in respective concentrations or water (50 μl), and a solution of 10 mU/ml PLA2 (derived from hog pancreas) (50 μl). The appearance of fluorescence was measured (Ex=345 nm, Em=396 nm). Percentage of the strength of fluorescence in the presence of a test compound was calculated when the strength of that in the absence thereof was regarded as 100%, and therefrom IC50 value was calculated.
as §1

PLA2 [2] = conditions: Japanese Journal of Clinical Medicine, 48 (1), 165-172, 1990; cited from earlier work

CCOC(=O)CCN(CCCOC)C(=O)/C(C)=C/c1ccc(C(=O)Oc2ccc(C(=N)N)cc2)cc1 [Example 1, p-(p-Amidinophenoxycarbonyl)-α-methylcinnamic acid N-2-ethoxycarbonylethyl-N-3-methoxypropylamide hydrochloride]
IC50 (trypsin): 136 nM
IC50 (PLA2 [1]): 107000 nM

CCOC(=O)C(C(=O)OCC)N(CCCOC)C(=O)/C(C)=C/c1ccc(C(=O)Oc2ccc(C(=N)N)cc2)cc1 [1(b), p-(p-Amidinophenoxycarbonyl)-α-methylcinnamic acid N-1,1-bis(ethoxycarbonyl)methyl-N-3-methoxypropylamide acetate]
IC50 (trypsin): 170 nM
IC50 (PLA2 [1]): 124000 nM

CCOC(=O)CN(CCCOC)C(=O)/C(C)=C/c1ccc(C(=O)Oc2ccc(C(=N)N)cc2)cc1 [Example 1(a), acetate]
IC50 (trypsin): 253 nM
IC50 (PLA2 [1]): 106000 nM

N=C(N)Nc1ccc(C(=O)Oc2ccc3cc(C(=N)N)ccc3c2)cc1 [nafamostat mesylate]
inhibitory activity on PLA2 (in words) (PLA2 [2]): inhibitory activity on PLA2

CN(C)C(=O)COC(=O)Cc1ccc(OC(=O)c2ccc(NC(=N)N)cc2)cc1 [camostat mesylate]
inhibitory activity on PLA2 (in words) (PLA2 [2]): inhibitory activity on PLA2

COCCCN(CC(=O)O)C(=O)/C(C)=C/c1ccc(C(=O)Oc2ccc(C(=N)N)cc2)cc1 [Example 3, p-(p-Amidinophenoxycarbonyl)-α-methylcinnamic acid N-carboxylmethyl-N-3-methoxypropylamide methanesulfonate]
IC50 (trypsin): 140 nM
